Reference: patent US20140309210A1, “INDAZOLE COMPOUNDS, COMPOSITIONS AND METHODS OF USE THEREOF” (Genentech, Inc., priority 2011, published 2014)

Target: T1, purified ITK (Invitrogen PV3875) (Homo sapiens, UniProt Q08881)
T1 construct: purchased Invitrogen PV3875
T1 sequence (Q08881 1-620): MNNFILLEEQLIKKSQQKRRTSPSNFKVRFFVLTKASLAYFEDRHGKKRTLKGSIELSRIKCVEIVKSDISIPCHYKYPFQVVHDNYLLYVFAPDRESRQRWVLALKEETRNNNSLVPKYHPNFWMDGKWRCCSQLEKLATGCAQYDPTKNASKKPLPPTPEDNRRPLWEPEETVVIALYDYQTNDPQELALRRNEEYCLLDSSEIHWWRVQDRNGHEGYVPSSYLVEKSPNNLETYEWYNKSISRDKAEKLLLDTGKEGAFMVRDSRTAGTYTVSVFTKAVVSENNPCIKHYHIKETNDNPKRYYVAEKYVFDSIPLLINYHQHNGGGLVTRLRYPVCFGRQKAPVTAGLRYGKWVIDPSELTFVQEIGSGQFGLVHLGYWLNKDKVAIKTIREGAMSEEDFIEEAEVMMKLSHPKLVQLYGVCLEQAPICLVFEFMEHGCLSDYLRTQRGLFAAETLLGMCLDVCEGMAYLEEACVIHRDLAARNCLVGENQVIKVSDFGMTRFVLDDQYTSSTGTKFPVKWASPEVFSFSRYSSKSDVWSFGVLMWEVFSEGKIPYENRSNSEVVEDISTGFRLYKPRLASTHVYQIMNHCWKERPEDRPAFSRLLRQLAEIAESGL
Assay: ITK peptide phosphorylation assay (Caliper LabChip or LCMS)
Assay type: biochemical
Procedure: The ability of purified ITK (Invitrogen PV3875) to catalyze peptide phosphorylation is monitored using a Caliper LabChip 3000 microfluidic unit (Caliper assay) or by liquid chromatography-mass spectrometry (LCMS) using a Waters Acquity system (LCMS assay). […] Reactions are quenched by the addition of 2,2′,2″,2′″-(ethane-1,2-diyldinitrilo)tetraacetic acid (50 mM final). Non-phosphorylated substrate and phosphorylated product peptides are separated and quantified using a Caliper LabChip 3000 instrument. […] Reactions are quenched by the addition of trichloroacetic acid (5% v/v final). Non-phosphorylated substrate and phosphorylated product peptides are separated by ultra performance LC and detected by a coupled triple quadrupole MS device applying multiple reaction monitoring (MRM) for quantification. The area of the MRM-extracted mass signal is used to assess the inhibition by test compounds. Equilibrium dissociation constant (Ki) values for ITK inhibitors are calculated from plots of activity vs. inhibitor concentration using Morrison's quadratic equation that accounts for the potential of tight binding, and by also applying the conversion factor that accounts for competitive inhibition and the concentration of ATP used in the assay relative to its apparent Michaelis constant (Km,app).

[1] = Table 2, Examples 1-140, class symbols
[2] = Table 3, specific values for certain examples

Row | Compound | Ki [1] [nM] | Ki [2] [nM] | Ki (Table 1, Examples 141-279) [nM]
1 | 6-(6-methoxy-3- pyridyl)-N-[1-(3- pyridylmethyl)py- razol-4-yl]-1H- indazole-3- carboxamide [Example 244] | – | – | 32.3
2 | N#Cc1cccc(Cn2cc(NC(=O)c3n[nH]c4ccc(Cl)cc34)cn2)c1 [Example 1, 5-chloro-N-(1-(3-cyanobenzyl)-1H-pyrazol-4-yl)-1H-indazole-3-carboxamide] | 1 to 100 | 37.7 | –
3 | Cc1ccc2[nH]nc(C(=O)Nc3cnn(Cc4cccc(C#N)c4)c3)c2c1 [Example 2, N-(1-(3-cyanobenzyl)-1H-pyrazol-4-yl)-5-methyl-1H-indazole-3-carboxamide] | 1 to 100 | 16.5 | –
4 | N#Cc1cccc(Cn2cc(NC(=O)c3n[nH]c4cc(F)ccc34)cn2)c1 [Example 3, N-(1-(3-cyanobenzyl)-1H-pyrazol-4-yl)-6-fluoro-1H-indazole-3-carboxamide] | 1 to 100 | 18.5 | –
5 | COc1cccc2[nH]nc(C(=O)Nc3cnn(Cc4cccc(C#N)c4)c3)c12 [Example 4, N-(1-(3-cyanobenzyl)-1H-pyrazol-4-yl)-4-methoxy-1H-indazole-3-carboxamide] | > 100 | 1300 | –
6 | COc1cccc2c(C(=O)Nc3cnn(Cc4cccc(C#N)c4)c3)n[nH]c12 [Example 5, N-(1-(3-cyanobenzyl)-1H-pyrazol-4-yl)-7-methoxy-1H-indazole-3-carboxamide] | > 100 | > 3500 | –
7 | COc1ccc2c(C(=O)Nc3cnn(Cc4cccc(C#N)c4)c3)n[nH]c2c1 [Example 6, N-(1-(3-cyanobenzyl)-1H-pyrazol-4-yl)-6-methoxy-1H-indazole-3-carboxamide] | 1 to 100 | – | –
8 | N#Cc1cccc(Cn2cc(NC(=O)c3n[nH]c4ccc(F)cc34)cn2)c1 [Example 7, N-(1-(3-cyanobenzyl)-1H-pyrazol-4-yl)-5-fluoro-1H-indazole-3-carboxamide] | 1 to 100 | – | –
9 | COc1ccc2[nH]nc(C(=O)Nc3cnn(Cc4cccc(C#N)c4)c3)c2c1 [Example 8, N-(1-(3-cyanobenzyl)-1H-pyrazol-4-yl)-5-methoxy-1H-indazole-3-carboxamide] | 1 to 100 | – | –
10 | O=C(Nc1cnn(Cc2cccc3cccnc23)c1)c1n[nH]c2cc(-c3cn[nH]c3)ccc12 [Example 9, 6-(1H-Pyrazol-4-yl)-1H-indazole-3-carboxylic acid (1-quinolin-8-ylmethyl-1H-pyrazol-4-yl)-amide] | 1 to 100 | 7.42 | –
11 | COC(=O)c1cccc(Cn2cc(NC(=O)c3n[nH]c4cc(-c5cn[nH]c5)ccc34)cn2)c1 [Example 10, 3-(4-{[6-(1H-Pyrazol-4-yl)-1H-indazole-3-carbonyl]-amino}-pyrazol-1-ylmethyl)-benzoic acid methyl ester] | 1 to 100 | – | –
12 | O=C(Nc1cnn(CCc2ccccc2)c1)c1n[nH]c2cc(-c3cn[nH]c3)ccc12 [Example 11, 6-(1H-Pyrazol-4-yl)-1H-indazole-3-carboxylic acid (1-phenethyl-1H-pyrazol-4-yl)-amide] | 1 to 100 | – | –
13 | NC(=O)c1ccc(Cn2cc(NC(=O)c3n[nH]c4cc(-c5cn[nH]c5)ccc34)cn2)cc1 [Example 12, 6-(1H-Pyrazol-4-yl)-1H-indazole-3-carboxylic acid [1-(4-carbamoyl-benzyl)-1H-pyrazol-4-yl]-amide] | 0.01 to 1 | – | –
14 | Cc1n[nH]c(C)c1CCn1cc(NC(=O)c2n[nH]c3cc(-c4cn[nH]c4)ccc23)cn1 [Example 13, 6-(1H-Pyrazol-4-yl)-1H-indazole-3-carboxylic acid {1-[2-(3,5-dimethyl-1H-pyrazol-4-yl)-ethyl]-1H-pyrazol-4-yl}-amide] | 1 to 100 | – | –
15 | O=C(Nc1cnn(Cc2noc3ccccc23)c1)c1n[nH]c2cc(-c3cn[nH]c3)ccc12 [Example 14, 6-(1H-Pyrazol-4-yl)-1H-indazole-3-carboxylic acid (1-1,2-benzisoxazol-3-ylmethyl-1H-pyrazol-4-yl)-amide] | 1 to 100 | 2 | –
16 | CNC(=O)c1ccc(Cn2cc(NC(=O)c3n[nH]c4cc(-c5cn[nH]c5)ccc34)cn2)o1 [Example 15, 6-(1H-Pyrazol-4-yl)-1H-indazole-3-carboxylic acid [1-(5-methylcarbamoyl-furan-2-ylmethyl)-1H-pyrazol-4-yl]-amid] | 1 to 100 | – | –
17 | O=C(Nc1cnn(Cc2cc(-c3ccccc3)on2)c1)c1n[nH]c2cc(-c3cn[nH]c3)ccc12 [Example 16, 6-(1H-Pyrazol-4-yl)-1H-indazole-3-carboxylic acid [1-(5-phenyl-isoxazol-3-ylmethyl)-1H-pyrazol-4-yl]-amide] | 1 to 100 | 6.9 | –
18 | O=C(Nc1cnn(Cc2nc3ccccc3s2)c1)c1n[nH]c2cc(-c3cn[nH]c3)ccc12 [Example 17, 6-(1H-Pyrazol-4-yl)-1H-indazole-3-carboxylic acid (1-benzothiazol-2-ylmethyl-1H-pyrazol-4-yl)-amide] | 1 to 100 | 1.8 | –
19 | O=C(Nc1cnn(Cc2cc(CN3CCOCC3)on2)c1)c1n[nH]c2cc(-c3cn[nH]c3)ccc12 [Example 18, 6-(1H-Pyrazol-4-yl)-1H-indazole-3-carboxylic acid [1-(5-morpholin-4-ylmethyl-isoxazol-3-ylmethyl)-1H-pyrazol-4-yl]-amide] | 1 to 100 | – | –
20 | O=C(Nc1cnn(Cc2cn3ccccc3n2)c1)c1n[nH]c2cc(-c3cn[nH]c3)ccc12 [Example 19, 6-(1H-Pyrazol-4-yl)-1H-indazole-3-carboxylic acid (1-imidazo[1,2-a]pyridin-2-ylmethyl-1H-pyrazol-4-yl)-amide] | 1 to 100 | 2.3 | –

Now from value to compound, other results behind:

Row | Ki [1] [nM] | Ki [2] [nM] | Compound | Ki (Table 1, Examples 141-279) [nM]
21 | 1 to 100 | – | O=C(Nc1cnn(Cc2csc(-c3ccccc3)n2)c1)c1n[nH]c2cc(-c3cn[nH]c3)ccc12 [Example 20, 6-(1H-Pyrazol-4-yl)-1H-indazole-3-carboxylic acid [1-(2-phenyl-thiazol-4-ylmethyl)-1H-pyrazol-4-yl]-amide] | –
22 | 1 to 100 | – | CC(C)c1nc(Cn2cc(NC(=O)c3n[nH]c4cc(-c5cn[nH]c5)ccc34)cn2)cs1 [Example 21, 6-(1H-Pyrazol-4-yl)-1H-indazole-3-carboxylic acid [1-(2-isopropyl-thiazol-4-ylmethyl)-1H-pyrazol-4-yl]-amide] | –
23 | 1 to 100 | – | O=C(Nc1cnn(Cc2cccc(C(=O)N3CCC(O)CC3)c2)c1)c1n[nH]c2cc(-c3cn[nH]c3)ccc12 [Example 22, 6-(1H-Pyrazol-4-yl)-1H-indazole-3-carboxylic acid {1-[3-(4-hydroxy-1-piperidine-1-carbonyl)-benzyl]-1H-pyrazol-4-yl}amide] | –
24 | 1 to 100 | – | O=C(Nc1cnn(Cc2csc(-c3cccs3)n2)c1)c1n[nH]c2cc(-c3cn[nH]c3)ccc12 [Example 23, 6-(1H-Pyrazol-4-yl)-1H-indazole-3-carboxylic acid [1-(2-thiophen-2-yl-thiazol-4-ylmethyl)-1H-pyrazol-4-yl]-amide] | –
25 | 0.01 to 1 | – | O=C(Nc1cnn(Cc2csc(-c3ccccn3)n2)c1)c1n[nH]c2cc(-c3cn[nH]c3)ccc12 [Example 24, 6-(1H-pyrazol-4-yl)-N-[1-[[2-(2-pyridyl)thiazol-4-yl]methyl]pyrazol-4-yl]-1H-indazole-3-carboxamide] | –
26 | 1 to 100 | – | C#Cc1cccc(Cn2cc(NC(=O)c3n[nH]c4cc(-c5cn[nH]c5)ccc34)cn2)c1 [Example 25, N-[1-[(3-ethynylphenyl)methyl]pyrazol-4-yl]-6-(1H-pyrazol-4-yl)-1H-indazole-3-carboxamide] | –
27 | 1 to 100 | – | O=C(Nc1cnn(Cc2cscn2)c1)c1n[nH]c2cc(-c3cn[nH]c3)ccc12 [Example 26, 6-(1H-Pyrazol-4-yl)-1H-indazole-3-carboxylic acid (1-thiazol-4-ylmethyl-1H-pyrazol-4-yl)-amide] | –
28 | 0.01 to 1 | – | N#Cc1ccc(Cn2cc(NC(=O)c3n[nH]c4cc(-c5cn[nH]c5)ccc34)cn2)s1 [Example 27, 6-(1H-Pyrazol-4-yl)-1H-indazole-3-carboxylic acid [1-(5-cyano-thiophen-2-ylmethyl)-1H-pyrazol-4-yl]-amide] | –
29 | 1 to 100 | – | Nc1cc(Cn2cc(NC(=O)c3n[nH]c4cc(-c5cn[nH]c5)ccc34)cn2)ccn1 [Example 28, 6-(1H-Pyrazol-4-yl)-1H-indazole-3-carboxylic acid [1-(2-amino-pyridin-4-ylmethyl)-1H-pyrazol-4-yl]-amide] | –
30 | 0.01 to 1 | – | NC(=O)c1cccc(Cn2cc(NC(=O)c3n[nH]c4cc(-c5cn[nH]c5)ccc34)cn2)c1 [Example 29, 6-(1H-Pyrazol-4-yl)-1H-indazole-3-carboxylic acid [1-(3-carbamoyl-benzyl)-1H-pyrazol-4-yl]-amide] | –
